Experimental data as given in the kinase profiling compilation of Christmann-Franck et al. (2016).

Tests used:
Assay in all cases: radiometric filter-binding kinase assay
PAK6 (human) = PAK6 (human) (UniProt Q9NQU5)
HIPK1 (human) = HIPK1 (human) (UniProt Q86Z02)
NUAK1 (human) = NUAK1 (human) (UniProt O60285)
DYRK1A (human) = DYRK1A (human) (UniProt Q13627)
CSNK2A1 (human) = CSNK2A1 (human) (UniProt P68400)
TAOK1 (human) = TAOK1 (human) (UniProt Q7L7X3)
NEK6 (human) = NEK6 (human) (UniProt Q9HC98)
EPHB1 (human) = EPHB1 (human) (UniProt P54762)
MARK3 (human) = MARK3 (human) (UniProt P27448)
PRKCZ (human) = PRKCZ (human) (UniProt Q05513)
IKBKE (human) = IKBKE (human) (UniProt Q14164)
ROCK2 (rat) = conditions: accession and sequence are those of the human protein
EPHA2 (human) = EPHA2 (human) (UniProt P29317)
MAP3K9 (human) = MAP3K9 (human) (UniProt P80192)
EEF2K (human) = EEF2K (human) (UniProt O00418)
PAK7 (human) = PAK7 (human) (UniProt Q9P286)
BTK (human) = BTK (human) (UniProt Q06187)
MARK1 (human) = MARK1 (human) (UniProt Q9P0L2)
MAPKAPK5 (human) = MAPKAPK5 (human) (UniProt Q8IW41)
DYRK3 (human) = DYRK3 (human) (UniProt O43781)
DYRK2 (human) = DYRK2 (human) (UniProt Q92630)
HIPK2 (human) = HIPK2 (human) (UniProt Q9H2X6)
DAPK1 (human) = DAPK1 (human) (UniProt P53355)
MAPK13 (human) = MAPK13 (human) (UniProt O15264)
ERBB4 (human) = ERBB4 (human) (UniProt Q15303)
LCK (mouse) = conditions: accession and sequence are those of the human protein
PAK4 (human) = PAK4 (human) (UniProt O96013)
[1] = system: AKT1 (human), P31749 [S473D]
EPHB3 (human) = EPHB3 (human) (UniProt P54753)
MAPK14 (human) = MAPK14 (human) (UniProt Q16539)
HIPK3 (human) = HIPK3 (human) (UniProt Q9H422)
MST4 (human) = MST4 (human) (UniProt Q9P289)
RPS6KA5 KD1 KD2 (human) = RPS6KA5 KD1 KD2 (human) (UniProt O75582)
CaMK1 (human) = CaMK1 (human) (UniProt Q14012)
MAP2K6 (human) = MAP2K6 (human) (UniProt P52564)
MAPK11 (human) = MAPK11 (human) (UniProt Q15759)

EPHA2 (human), sequence (P29317 whole entry, looked up): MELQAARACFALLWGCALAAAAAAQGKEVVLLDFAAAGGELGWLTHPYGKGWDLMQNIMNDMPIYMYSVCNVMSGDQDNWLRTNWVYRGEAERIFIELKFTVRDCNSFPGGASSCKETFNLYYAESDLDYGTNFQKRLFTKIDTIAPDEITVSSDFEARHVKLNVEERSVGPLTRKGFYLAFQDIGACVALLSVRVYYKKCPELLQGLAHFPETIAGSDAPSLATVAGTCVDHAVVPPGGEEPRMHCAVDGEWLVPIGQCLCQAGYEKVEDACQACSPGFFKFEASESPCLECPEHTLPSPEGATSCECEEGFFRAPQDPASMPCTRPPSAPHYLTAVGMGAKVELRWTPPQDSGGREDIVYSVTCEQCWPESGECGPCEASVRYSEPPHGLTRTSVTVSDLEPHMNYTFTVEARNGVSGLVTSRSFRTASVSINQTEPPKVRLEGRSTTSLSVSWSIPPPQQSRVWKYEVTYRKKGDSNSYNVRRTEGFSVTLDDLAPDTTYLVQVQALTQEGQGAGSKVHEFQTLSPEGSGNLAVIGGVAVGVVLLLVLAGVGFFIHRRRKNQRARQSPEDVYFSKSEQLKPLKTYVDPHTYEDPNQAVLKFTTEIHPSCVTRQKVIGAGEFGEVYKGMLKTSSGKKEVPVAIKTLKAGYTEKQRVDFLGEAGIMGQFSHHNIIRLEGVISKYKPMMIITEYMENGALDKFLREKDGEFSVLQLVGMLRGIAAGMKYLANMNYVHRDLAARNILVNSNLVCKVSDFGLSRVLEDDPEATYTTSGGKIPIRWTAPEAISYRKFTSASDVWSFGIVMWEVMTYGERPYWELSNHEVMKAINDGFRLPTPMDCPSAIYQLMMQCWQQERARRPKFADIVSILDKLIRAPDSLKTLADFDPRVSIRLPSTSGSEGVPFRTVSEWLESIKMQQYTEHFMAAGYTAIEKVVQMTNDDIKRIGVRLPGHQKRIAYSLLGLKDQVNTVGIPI
PRKCZ (human), sequence (Q05513 whole entry, looked up): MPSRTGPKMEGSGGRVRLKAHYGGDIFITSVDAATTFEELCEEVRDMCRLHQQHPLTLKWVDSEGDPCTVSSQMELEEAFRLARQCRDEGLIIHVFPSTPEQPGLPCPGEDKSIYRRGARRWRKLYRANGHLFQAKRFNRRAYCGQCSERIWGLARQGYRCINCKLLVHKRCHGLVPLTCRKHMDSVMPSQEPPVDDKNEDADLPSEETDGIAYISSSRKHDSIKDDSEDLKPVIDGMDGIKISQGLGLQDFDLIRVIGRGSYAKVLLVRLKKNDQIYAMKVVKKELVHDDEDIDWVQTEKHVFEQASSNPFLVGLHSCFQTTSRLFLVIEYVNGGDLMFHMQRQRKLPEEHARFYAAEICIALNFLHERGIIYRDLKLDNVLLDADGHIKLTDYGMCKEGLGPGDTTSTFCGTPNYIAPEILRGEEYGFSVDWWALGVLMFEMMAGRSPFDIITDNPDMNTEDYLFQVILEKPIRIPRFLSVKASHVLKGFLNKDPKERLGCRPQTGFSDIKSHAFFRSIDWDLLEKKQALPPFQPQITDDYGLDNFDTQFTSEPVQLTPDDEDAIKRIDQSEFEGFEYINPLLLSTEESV
PAK4 (human), sequence (O96013 whole entry, looked up): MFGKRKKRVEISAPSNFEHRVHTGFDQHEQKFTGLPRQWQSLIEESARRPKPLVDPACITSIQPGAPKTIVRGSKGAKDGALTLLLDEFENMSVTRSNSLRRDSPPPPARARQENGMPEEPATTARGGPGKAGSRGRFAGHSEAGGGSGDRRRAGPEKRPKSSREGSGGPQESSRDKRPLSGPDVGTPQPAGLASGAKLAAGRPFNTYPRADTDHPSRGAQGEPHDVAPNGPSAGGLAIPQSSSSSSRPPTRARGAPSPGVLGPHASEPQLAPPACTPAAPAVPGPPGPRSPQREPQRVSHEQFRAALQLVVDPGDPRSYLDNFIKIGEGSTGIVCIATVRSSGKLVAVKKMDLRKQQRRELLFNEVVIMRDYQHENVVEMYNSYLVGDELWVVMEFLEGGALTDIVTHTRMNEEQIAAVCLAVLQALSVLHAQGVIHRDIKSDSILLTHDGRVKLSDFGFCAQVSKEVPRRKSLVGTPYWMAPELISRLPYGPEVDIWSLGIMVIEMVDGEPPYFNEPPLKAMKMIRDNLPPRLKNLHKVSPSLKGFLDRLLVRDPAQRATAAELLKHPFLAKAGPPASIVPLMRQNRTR
AKT1 (human), P31749 [S473D], sequence (P31749 whole entry S473D, looked up): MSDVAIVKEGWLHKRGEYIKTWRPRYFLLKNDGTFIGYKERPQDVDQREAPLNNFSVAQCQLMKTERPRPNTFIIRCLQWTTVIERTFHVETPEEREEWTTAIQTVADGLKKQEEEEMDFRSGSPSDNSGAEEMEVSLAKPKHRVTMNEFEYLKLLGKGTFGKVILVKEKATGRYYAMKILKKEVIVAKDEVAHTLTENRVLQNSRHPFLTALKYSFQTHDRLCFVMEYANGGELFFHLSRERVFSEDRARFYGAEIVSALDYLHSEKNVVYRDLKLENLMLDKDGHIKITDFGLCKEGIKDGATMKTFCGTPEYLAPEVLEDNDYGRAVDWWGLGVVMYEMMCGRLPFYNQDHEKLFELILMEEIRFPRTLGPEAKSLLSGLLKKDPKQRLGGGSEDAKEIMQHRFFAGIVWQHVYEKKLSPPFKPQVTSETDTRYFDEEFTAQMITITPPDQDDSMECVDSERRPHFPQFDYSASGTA
DYRK3 (human), sequence (O43781 whole entry, looked up): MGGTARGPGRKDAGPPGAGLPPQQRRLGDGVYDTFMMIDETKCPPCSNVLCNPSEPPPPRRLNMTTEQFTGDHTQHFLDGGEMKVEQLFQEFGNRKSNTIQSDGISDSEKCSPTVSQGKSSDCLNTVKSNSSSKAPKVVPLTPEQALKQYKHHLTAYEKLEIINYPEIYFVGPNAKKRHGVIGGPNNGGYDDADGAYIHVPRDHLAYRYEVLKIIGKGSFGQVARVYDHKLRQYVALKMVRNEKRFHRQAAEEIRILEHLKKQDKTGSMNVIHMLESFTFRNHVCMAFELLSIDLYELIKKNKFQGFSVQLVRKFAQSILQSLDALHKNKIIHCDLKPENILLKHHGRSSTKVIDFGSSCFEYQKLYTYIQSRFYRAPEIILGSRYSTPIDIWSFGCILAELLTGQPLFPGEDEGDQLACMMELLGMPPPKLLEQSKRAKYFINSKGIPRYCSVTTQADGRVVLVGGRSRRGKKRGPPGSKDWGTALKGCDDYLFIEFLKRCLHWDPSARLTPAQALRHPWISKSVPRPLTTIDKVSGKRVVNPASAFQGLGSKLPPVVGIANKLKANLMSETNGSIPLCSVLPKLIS
HIPK3 (human), sequence (Q9H422 whole entry, looked up): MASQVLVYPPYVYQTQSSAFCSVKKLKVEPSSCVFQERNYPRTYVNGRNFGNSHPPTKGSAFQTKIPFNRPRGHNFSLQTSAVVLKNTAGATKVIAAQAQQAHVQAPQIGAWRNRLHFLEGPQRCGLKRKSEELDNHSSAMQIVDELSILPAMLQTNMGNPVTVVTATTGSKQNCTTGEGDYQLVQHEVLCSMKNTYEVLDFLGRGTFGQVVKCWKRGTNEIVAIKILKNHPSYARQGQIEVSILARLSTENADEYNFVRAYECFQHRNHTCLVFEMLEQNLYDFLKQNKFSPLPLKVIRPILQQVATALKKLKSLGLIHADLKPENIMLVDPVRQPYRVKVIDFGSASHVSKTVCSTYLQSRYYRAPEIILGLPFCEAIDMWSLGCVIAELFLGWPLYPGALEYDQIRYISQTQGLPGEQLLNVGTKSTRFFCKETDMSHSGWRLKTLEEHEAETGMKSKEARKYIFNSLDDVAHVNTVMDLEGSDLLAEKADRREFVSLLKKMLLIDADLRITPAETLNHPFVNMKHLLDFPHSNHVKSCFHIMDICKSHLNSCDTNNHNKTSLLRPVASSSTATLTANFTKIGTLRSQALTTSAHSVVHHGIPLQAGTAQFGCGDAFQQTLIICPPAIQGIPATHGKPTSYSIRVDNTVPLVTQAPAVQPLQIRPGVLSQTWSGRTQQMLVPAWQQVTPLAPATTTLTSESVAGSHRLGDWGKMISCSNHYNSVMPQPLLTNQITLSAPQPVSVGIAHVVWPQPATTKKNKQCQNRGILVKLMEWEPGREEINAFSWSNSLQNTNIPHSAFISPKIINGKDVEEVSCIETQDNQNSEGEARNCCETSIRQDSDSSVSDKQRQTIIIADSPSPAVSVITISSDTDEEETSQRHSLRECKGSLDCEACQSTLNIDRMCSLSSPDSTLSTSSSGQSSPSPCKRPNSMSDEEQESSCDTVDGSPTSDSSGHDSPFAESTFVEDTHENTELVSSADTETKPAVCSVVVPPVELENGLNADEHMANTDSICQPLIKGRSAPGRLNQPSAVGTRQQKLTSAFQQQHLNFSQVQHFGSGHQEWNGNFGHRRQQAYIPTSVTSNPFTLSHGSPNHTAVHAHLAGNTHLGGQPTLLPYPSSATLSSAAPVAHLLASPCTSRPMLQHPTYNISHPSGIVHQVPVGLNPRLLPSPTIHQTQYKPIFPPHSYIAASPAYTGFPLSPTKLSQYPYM
MAPKAPK5 (human), sequence (Q8IW41 whole entry, looked up): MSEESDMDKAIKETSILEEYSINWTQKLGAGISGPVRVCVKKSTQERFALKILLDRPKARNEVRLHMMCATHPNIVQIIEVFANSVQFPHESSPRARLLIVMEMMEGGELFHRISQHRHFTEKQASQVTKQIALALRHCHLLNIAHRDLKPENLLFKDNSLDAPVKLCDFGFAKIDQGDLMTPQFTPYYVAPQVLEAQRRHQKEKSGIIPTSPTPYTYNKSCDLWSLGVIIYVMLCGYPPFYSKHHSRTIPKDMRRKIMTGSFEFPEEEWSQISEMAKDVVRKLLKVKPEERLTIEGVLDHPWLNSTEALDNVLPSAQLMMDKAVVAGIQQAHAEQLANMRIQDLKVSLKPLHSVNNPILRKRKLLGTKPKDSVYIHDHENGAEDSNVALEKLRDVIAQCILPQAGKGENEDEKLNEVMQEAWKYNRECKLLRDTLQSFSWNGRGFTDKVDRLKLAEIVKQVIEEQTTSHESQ

CNC(=O)C1[C@H]2O[C@@](C)([C@@H]1N)n1c3ccccc3c3c4c(c5c6ccccc6n2c5c31)C(=O)NC4 (some centres not stated)
residual activity (PAK6 (human); compound 0.01 µM): 29%
residual activity (PAK6 (human); compound 0.1 µM): 2%
residual activity (PAK6 (human); compound 1.0 µM): 1%
residual activity (HIPK1 (human); compound 0.01 µM): 98%
residual activity (HIPK1 (human); compound 0.1 µM): 82%
residual activity (HIPK1 (human); compound 1.0 µM): 22%
residual activity (NUAK1 (human); compound 0.01 µM): 2%
residual activity (NUAK1 (human); compound 0.1 µM): 2%
residual activity (NUAK1 (human); compound 1.0 µM): 1%
residual activity (DYRK1A (human); compound 0.01 µM): 29%
residual activity (DYRK1A (human); compound 0.1 µM): 8%
residual activity (DYRK1A (human); compound 1.0 µM): 3%
residual activity (CSNK2A1 (human); compound 0.01 µM): 106%
residual activity (CSNK2A1 (human); compound 0.1 µM): 108%
residual activity (CSNK2A1 (human); compound 1.0 µM): 80%
residual activity (TAOK1 (human); compound 0.01 µM): 53%
residual activity (TAOK1 (human); compound 0.1 µM): 15%
residual activity (TAOK1 (human); compound 1.0 µM): 7%
residual activity (NEK6 (human); compound 0.01 µM): 87%
residual activity (NEK6 (human); compound 0.1 µM): 89%
residual activity (NEK6 (human); compound 1.0 µM): 72%
residual activity (EPHB1 (human); compound 0.01 µM): 41%
residual activity (EPHB1 (human); compound 0.1 µM): 56%
residual activity (EPHB1 (human); compound 1.0 µM): 25%
residual activity (MARK3 (human); compound 0.01 µM): 7%
residual activity (MARK3 (human); compound 0.1 µM): 3%
residual activity (MARK3 (human); compound 1.0 µM): 2%
residual activity (PRKCZ (human); compound 0.01 µM): 110%
residual activity (PRKCZ (human); compound 0.1 µM): 56%
residual activity (PRKCZ (human); compound 1.0 µM): 15%
residual activity (IKBKE (human); compound 0.01 µM): 6%
residual activity (IKBKE (human); compound 0.1 µM): 1%
residual activity (IKBKE (human); compound 1.0 µM): 2%
residual activity (ROCK2 (rat); compound 0.01 µM): 82%
residual activity (ROCK2 (rat); compound 1.0 µM): 7%
residual activity (EPHA2 (human); compound 0.01 µM): 92%
residual activity (EPHA2 (human); compound 0.1 µM): 53%
residual activity (EPHA2 (human); compound 1.0 µM): 19%
residual activity (MAP3K9 (human); compound 0.01 µM): 3%
residual activity (MAP3K9 (human); compound 0.1 µM): 2%
residual activity (MAP3K9 (human); compound 1.0 µM): 2%
residual activity (EEF2K (human); compound 0.01 µM): 105%
residual activity (EEF2K (human); compound 0.1 µM): 97%
residual activity (EEF2K (human); compound 1.0 µM): 79%
residual activity (PAK7 (human); compound 0.01 µM): 17%
residual activity (PAK7 (human); compound 0.1 µM): 4%
residual activity (PAK7 (human); compound 1.0 µM): 2%
residual activity (BTK (human); compound 0.01 µM): 49%
residual activity (BTK (human); compound 0.1 µM): 11%
residual activity (BTK (human); compound 1.0 µM): 9%
residual activity (MARK1 (human); compound 0.01 µM): 11%
residual activity (MARK1 (human); compound 0.1 µM): 5%
residual activity (MARK1 (human); compound 1.0 µM): 5%
residual activity (MAPKAPK5 (human); compound 0.01 µM): 81%
residual activity (MAPKAPK5 (human); compound 0.1 µM): 15%
residual activity (MAPKAPK5 (human); compound 1.0 µM): 2%
residual activity (DYRK3 (human); compound 0.01 µM): 24%
residual activity (DYRK3 (human); compound 0.1 µM): 4%
residual activity (DYRK3 (human); compound 1.0 µM): 2%
residual activity (DYRK2 (human); compound 0.01 µM): 41%
residual activity (DYRK2 (human); compound 0.1 µM): 9%
residual activity (DYRK2 (human); compound 1.0 µM): 4%
residual activity (HIPK2 (human); compound 0.01 µM): 85%
residual activity (HIPK2 (human); compound 0.1 µM): 30%
residual activity (HIPK2 (human); compound 1.0 µM): 6%
residual activity (DAPK1 (human); compound 0.01 µM): 51%
residual activity (DAPK1 (human); compound 0.1 µM): 18%
residual activity (DAPK1 (human); compound 1.0 µM): 4%
residual activity (MAPK13 (human); compound 0.01 µM): 100%
residual activity (MAPK13 (human); compound 0.1 µM): 97%
residual activity (MAPK13 (human); compound 1.0 µM): 48%
residual activity (ERBB4 (human); compound 0.01 µM): 96%
residual activity (ERBB4 (human); compound 0.1 µM): 63%
residual activity (ERBB4 (human); compound 1.0 µM): 14%
residual activity (LCK (mouse); compound 0.01 µM): 44%
residual activity (LCK (mouse); compound 0.1 µM): 13%
residual activity (LCK (mouse); compound 1.0 µM): 3%
residual activity (PAK4 (human); compound 0.01 µM): 25%
residual activity (PAK4 (human); compound 0.1 µM): 7%
residual activity (PAK4 (human); compound 1.0 µM): 7%
residual activity ([1]; compound 0.01 µM): 93%
residual activity ([1]; compound 0.1 µM): 44%
residual activity ([1]; compound 1.0 µM): 5%
residual activity (EPHB3 (human); compound 0.01 µM): 106%
residual activity (EPHB3 (human); compound 0.1 µM): 100%
residual activity (EPHB3 (human); compound 1.0 µM): 83%
residual activity (MAPK14 (human); compound 0.01 µM): 106%
residual activity (MAPK14 (human); compound 0.1 µM): 109%
residual activity (MAPK14 (human); compound 1.0 µM): 105%
residual activity (HIPK3 (human); compound 0.01 µM): 83%
residual activity (HIPK3 (human); compound 0.1 µM): 43%
residual activity (HIPK3 (human); compound 1.0 µM): 10%
residual activity (MST4 (human); compound 0.01 µM): 86%
residual activity (MST4 (human); compound 0.1 µM): 26%
residual activity (MST4 (human); compound 1.0 µM): 20%
residual activity (RPS6KA5 KD1 KD2 (human); compound 0.01 µM): 41%
residual activity (RPS6KA5 KD1 KD2 (human); compound 0.1 µM): 10%
residual activity (RPS6KA5 KD1 KD2 (human); compound 1.0 µM): 2%
residual activity (CaMK1 (human); compound 0.01 µM): 97%
residual activity (CaMK1 (human); compound 0.1 µM): 25%
residual activity (CaMK1 (human); compound 1.0 µM): 4%
residual activity (MAP2K6 (human); compound 0.01 µM): 10%
residual activity (MAP2K6 (human); compound 0.1 µM): 13%
residual activity (MAP2K6 (human); compound 1.0 µM): 5%
residual activity (MAPK11 (human); compound 0.01 µM): 108%
residual activity (MAPK11 (human); compound 0.1 µM): 96%
residual activity (MAPK11 (human); compound 1.0 µM): 79%
